We go through 18 compounds from patent publication US20230067910A1, “NOVEL COMPOUNDS FOR THE DIAGNOSIS, TREATMENT AND PREVENTION OF DISEASES ASSOCIATED WITH THE AGGREGATION OF ALPHA-SYNUCLEIN” (MODAG GMBH, priority 2019, published 2023).

The target of the assay is T1, alpha-synuclein (sonicated fibrils) (Homo sapiens, UniProt P37840).
T1 construct: made in house; host or cells: E. coli
The experiment in a line: Modified competition binding assay, protocol 3b, reference ligand [3H]-compound 2. The settings on record: Table 5, reference ligand [3H]-compound 2 (1 nM). As for the experimental part: Alpha-synuclein and tau46 were purified from E. coli according to established protocols (Nuscher B, et al., J. Biol. Chem., 2004; 279(21):21966-75), Aβ1-42 was obtained from rPeptide, Watkinsville, Ga., USA. Fibrils were prepared by aggregation of recombinant protein via constant agitation. In detail, 70 μM of alpha-synuclein mixed with 100 mM NaCl in 50 mM Tris, pH 7.0+0.02% NaN3 were incubated at 1,400 rpm, 37° C. for 96 h. 10 μM of tau46 were incubated with 0.03 mg/ml heparin in 50 mM Tris, pH=7.0 at 1,000 rpm, 37° C. for 72 h. Aβ1-42 was solved in 20 mM NaPi, pH=8.0+0.2 mM EDTA+0.02% NaN3 (Deeg A A, et al., Biochim. Biophys. Acta, 2015; 1850(9): 1884-90; Goedert M, et al. Nature, 1996; 383(6600): 550-3).
For competition binding experiments, a fixed concentration of recombinant αSYN fibrils (sonicated, 15 nM/well) was incubated with 1 nM [^3H]-compound 1 or [3H]-compound 2 and decreasing concentrations of a serial dilution of non-labeled competitor (serial dilution 1:4 or 1:3.5 or 1:3 providing the concentration ranges of non-labeled competitor 1 μM-[…] 1 μM-4 nM or 1 μM-[…], respectively) in 30 mM Tris-HCl, 10% ethanol, 0.05% Tween20, pH 7.4 in a total volume of 200 μL/well. Plates were incubated for 4.5 hours at RT covered by removable sealing tape (PerkinElmer, Waltham, Mass., USA).
Filtration and readout were performed as described for saturation binding assays. [^3H]-labeled ligand binding [in CMP] was plotted against increasing competitor concentrations and data points were fitted using non-linear regression analysis to calculate the IC50 and Ki values (GraphPad Software, Inc., Version 7.03, La Jolla (Calif.), USA). In the competition binding assay with sonicated recombinant αSYN fibrils, the calculation of Ki values was done based on KD values of 0.6 nM and 0.2 nM for compound 1 and compound 2, respectively.
The fibril competition assay provides Ki values. Ki is a quantitative measure that represents the concentration of the non-radioactive tested compound (competitor ligand) required to replace 50% of a reference compound, in this case [H]-compound 1 (1 nM) or [H]-compound 2 (1 nM), which is bound to the target structures (1 nM), in our case recombinant alpha-synuclein and tau46 fibrils. This assay is suitable for a screening of non-radioactive ligands.

`CN(C)c1ccc(-c2nc(-c3ccnc(Br)c3)n[nH]2)cc1` [Compound 44, 4-[3-(2-bromopyridin-4-yl)-1H-1,2,4-triazol-5-yl]-N,N-dimethylaniline]: the Ki amounted to 0.6 nM. Take `Clc1cc(-c2cc(-c3ccc4c(c3)OCO4)n[nH]2)c(Cl)nn1` [Compound 48, 4-[5-(1,3-benzodioxol-5-yl)-1H-pyrazol-3-yl]-3,6-dichloropyridazine]: the inhibitory constant (Ki) is 59 nM.

`COCCN1CCN(c2ccc(-c3cc(-c4ccnc(Br)c4)[nH]n3)cc2)CC1` [Compound 51, 1-{4-[5-(2-bromopyridin-4-yl)-1H-pyrazol-3-yl]phenyl}-4-(2-methoxyethyl)piperazine]: the Ki came out at 2.7 nM. Take `CNc1ccc(-c2cc(-c3cc(C)nc(Br)c3)[nH]n2)cc1` [Compound 38, 4-[5-(2-bromo-6-methylpyridin-4-yl)-1H-pyrazol-3-yl]-N-methylaniline]: the inhibition constant (Ki) stood at 113 nM. Regarding `CNc1ccc(-c2cc(-c3cc(Br)nc(Br)c3)[nH]n2)cc1` [Compound 37, 4-[5-(2,6-dibromopyridin-4-yl)-1H-pyrazol-3-yl]-N-methylaniline], the Ki was 16 nM. Next, `Cc1cc(-c2cc(-c3ccc4c(c3)OCO4)n[nH]2)cc(Br)n1` [Compound 47, 4-[3-(1,3-benzodioxol-5-yl)-1H-pyrazol-5-yl]-2-bromo-6-methylpyridine]: 97 nM; `Brc1cc(-c2nc(-c3ccc4c(c3)OCO4)c[nH]2)ccn1` [Compound 33, 4-[4-(1,3-benzodioxol-5-yl)-1H-imidazol-2-yl]-2-bromopyridine]: 33 nM.

For the compound `CN(C)c1ccc(-c2cc(-c3cc(Cl)ncn3)[nH]n2)cc1` [Compound 43, 4-[5-(6-chloropyrimidin-4-yl)-1H-pyrazol-3-yl]-N,N-dimethylaniline], the inhibitory constant (Ki) came to 0.5 nM. As for `FC1CN(c2ccc(-c3cc(-c4ccnc(Cl)c4)[nH]n3)cc2)C1` [Compound 55, 2-chloro-4-{3-[4-(3-fluoroazetidin-1-yl)phenyl]-1H-pyrazol-5-yl}pyridine], the Ki was 1.2 nM.

On to “6-[5-(2-bromopyridin-4-yl)-1H-pyrazol-3-yl]-1,3-dioxolo[4,5-b]pyridine [Compound 32]”, for which the Ki is 18 nM.

With `CNc1ccc(-c2cc(-c3ccnc(Cl)c3)[nH]n2)cc1` [Compound 22, 4-[5-(2-chloropyridin-4-yl)-1H-pyrazol-3-yl]-N-methylaniline], the Ki was found to be 0.3 nM.

With `Fc1cc(-c2cc(-c3ccc(N4CCNCC4)cc3)n[nH]2)ccn1` [Compound 49, 1-{4-[5-(2-fluoropyridin-4-yl)-1H-pyrazol-3-yl]phenyl}piperazine], the Ki came out at 61 nM. Regarding `CN1CCN(c2ccc(-c3cc(-c4ccnc(Br)c4)[nH]n3)cc2)CC1` [Compound 26, 1-{4-[5-(2-bromopyridin-4-yl)-1H-pyrazol-3-yl]phenyl}-4-methylpiperazine], the inhibitory constant (Ki) was found to be 1 nM.

On to `CNc1ccc(-c2cc(-c3ccnc(F)c3)[nH]n2)cc1` [Compound 24, 4-[5-(2-fluoropyridin-4-yl)-1H-pyrazol-3-yl]-N-methylaniline], for which the Ki came to 0.8 nM. Regarding “4-[5-(2,6-dichloropyridin-4-yl)-1H-pyrazol-3-yl]-N,N-dimethylaniline [Compound 42]”, the Ki is 23 nM. Regarding `FC1CCN(c2ccc(-c3cc(-c4ccnc(Br)c4)[nH]n3)cc2)CC1` [Compound 52, 2-bromo-4-{3-[4-(4-fluoropiperidin-1-yl)phenyl]-1H-pyrazol-5-yl}pyridine], the inhibition constant (Ki) is 3.1 nM. Next, `Clc1c(-c2ccc3c(c2)OCO3)n[nH]c1-c1ccnc(Br)c1` [Compound 28, 4-[3-(1,3-benzodioxol-5-yl)-4-chloro-1H-pyrazol-5-yl]-2-bromopyridine]: 4.2 nM; `CN(C)c1ccc(-c2cc(-c3ccnc(Cl)c3)[nH]n2)cc1` [Compound 53, 4-[5-(2-chloropyridin-4-yl)-1H-pyrazol-3-yl]-N,N-dimethylaniline]: 0.8 nM.

As usually defined, the Ki is a measure of affinity in units of concentration, obtained from inhibition or displacement.
